Measurements reported in article PMC11022681 (Journal of the American Chemical Society, 2023).

Test: Kinetic inertness: transmetalation with excess Zn2+
Format: physicochemical
Settings: 25 equivalents of Zn2+, 37 °C, pH 6.0 MES buffer

Mn-PyC3A
pseudo-first-order rate constant of transmetalation: 5.5 ± 0.4 ×10^−4 s^−1
